We go through 20 molecules from US20110144160A1, “Antagonists of Prostaglandin D2 Receptors” (Amira Pharmaceuticals, Inc., priority 2008, published 2011).

pIC50: −log10 of the molar value.

The target of one experiment is T1, human DP2 receptor (Homo sapiens, UniProt Q9Y5Y4).
T1 construct: expressed in transfected cells
T1 sequence (Q9Y5Y4 1-395): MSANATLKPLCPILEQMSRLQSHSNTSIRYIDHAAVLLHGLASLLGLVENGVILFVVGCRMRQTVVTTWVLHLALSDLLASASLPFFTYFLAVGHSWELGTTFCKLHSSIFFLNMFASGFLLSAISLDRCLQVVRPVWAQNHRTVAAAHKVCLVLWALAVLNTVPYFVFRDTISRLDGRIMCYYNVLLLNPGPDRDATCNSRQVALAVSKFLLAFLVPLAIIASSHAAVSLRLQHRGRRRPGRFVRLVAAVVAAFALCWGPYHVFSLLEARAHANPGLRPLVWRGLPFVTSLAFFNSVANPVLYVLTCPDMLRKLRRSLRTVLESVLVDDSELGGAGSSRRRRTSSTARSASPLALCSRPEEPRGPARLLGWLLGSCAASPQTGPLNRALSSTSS
In words: DP2/CRTH2 binding assay ([3H]PGD2 radioligand). Particulars: membranes of HEK293 cells expressing recombinant human DP2, 1 nM [3H]PGD2; read-out: hDP2. The procedure: The ability of a compound to bind to the human DP2 receptor is assessed via a radioligand binding assay using [^3H]PGD2. HEK293 cells stably expressing recombinant human DP2 are resuspended in 10 mM Hepes, 7.4 containing 1 mM DTT, lysed and centrifuged at 75,000×g to pellet the membranes. The membranes are resuspended in 10 mM Hepes, 7.4 containing 1 mM DTT and 10% glycerol to approximately 5 mg protein/ml. Membranes (2-10 μg protein/well) are incubated in 96-well plates with 1 nM [^3H]PGD2 and test compound in Assay Buffer (50 mM Hepes, 10 mM MnCl2, 1 mM EDTA, plus or minus 0.2% human serum albumin, pH 7.4) for 60 minutes at room temperature. The reactions are terminated by rapid filtration through Whatman GF/C glass fibre filter plates. The filter plates were pre-soaked in 0.33% polythylenimine for 30 minutes at room temperature then washed in Wash Buffer (50 mM Hepes, 0.5 M NaCl pH 7.4) prior to harvesting. After harvesting, the filter plates are washed 3 times with 1 ml cold Wash Buffer then dried. Scintillant is then added to the plates and the radioactivity retained on the filters is determined on a Packard TopCount (Perkin Elmer). Specific binding is determined as total radioactive binding minus non-specific binding in the presence of 10 μM PGD2. IC50s were determined using GraphPad prism analysis of drug titration curves.

A further experiment has as its target T2, human DP1 receptor (Homo sapiens, UniProt Q13258).
T2 construct: tissue Biological Specialty Corporation; host or cells: human platelets, membrane preparation
T2 sequence (Q13258 1-359): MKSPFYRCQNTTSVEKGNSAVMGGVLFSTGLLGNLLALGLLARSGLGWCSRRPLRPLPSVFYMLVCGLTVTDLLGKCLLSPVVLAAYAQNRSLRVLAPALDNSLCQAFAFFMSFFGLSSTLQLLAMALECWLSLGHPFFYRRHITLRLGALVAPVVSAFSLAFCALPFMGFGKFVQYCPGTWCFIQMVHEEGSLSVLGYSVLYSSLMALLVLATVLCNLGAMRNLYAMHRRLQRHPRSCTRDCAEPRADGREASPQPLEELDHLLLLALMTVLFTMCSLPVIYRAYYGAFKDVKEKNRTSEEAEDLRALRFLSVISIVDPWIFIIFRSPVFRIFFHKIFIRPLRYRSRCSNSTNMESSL
As to the kind of experiment: DP1 binding assay ([3H]BWA868C radioligand). To be noted: human platelet membranes, 2 nM [3H]BWA868C; read-out: hDP1. The procedure: The ability of a compound to bind to the human DP1 receptor was evaluated via a radioligand membrane binding assay using the DP1 selective synthetic ligand [^3H]BWA868C. Packed human platelets (Biological Specialty Corporation), were resuspended in 6 volumes of Hepes/HBSS buffer (10 mM Hepes, 1 mM DTT in Hanks Balanced Salt Solution (HBSS), lysed and centrifuged at 75,000×g to pellet the membranes. Membranes were resuspended in Hepes/HBSS buffer to approximately 12 mg protein/ml. Membranes (20 μg protein/well) are incubated in 96-well plates with 2 nM [^3H]BWA868C and test compound in Assay Buffer (50 mM Hepes, 10 mM MnCl2, 1 mM EDTA, plus or minus 0.2% human serum albumin, pH 7.4) for 60 minutes at room temperature. The reactions are terminated by rapid filtration through Whatman GF/C glass fibre filter plates. The filter plates were pre-soaked in 0.33% polethylenimine for 30 minutes at room temperature then washed in Wash Buffer (50 mM Hepes, 0.5 M NaCl pH 7.4) prior to harvesting. After harvesting, the filter plates are washed 3 times with 1 ml cold Wash Buffer then dried. Scintillant is then added to the plates and the radioactivity retained on the filters is determined on a Packard TopCount (Perkin Elmer). Specific binding is determined as total radioactive binding minus non-specific binding in the presence of 10 μM BW A868C. IC50s were determined using GraphPad prism analysis of drug titration curves.

As for `COc1ccc(CC(=O)O)cc1Oc1ccc(NC(=O)C(C)(C)C)cc1CSCC(F)(F)F` [Compound 2, {3-[4-(2,2-dimethyl-propionylamino)-2-(2,2,2-trifluoro-ethylsulfanylmethyl)-phenoxy]-4-methoxy-phenyl}-acetic acid], the figures for the pIC50 on human DP2 receptor and on human DP1 receptor were over 6.52 and under 6.00, respectively.
In the case of `COc1ccc(CC(=O)O)cc1Oc1ccc(NC(=O)C(C)(C)C)cc1CSC(C)(C)C` [Compound 7, {3-[2-tert-Butylsulfanylmethyl-4-(2,2-dimethyl-propionylamino)-phenoxy]-4-methoxy-phenyl}-acetic acid], the pIC50 at human DP2 receptor is over 6.52; on human DP1 receptor, under 6.00.
The corresponding values for `COc1ccc(CC(=O)O)cc1Oc1ccc(NC(=O)c2ccc(Cl)cc2)cc1CSc1ccccc1` [Compound 17, {3-[4-(4-Chloro-benzoylamino)-2-phenylsulfanylmethyl-phenoxy]-4-methoxy-phenyl}-acetic acid] are over 6.52 and under 6.00.
Consider `COc1ccc(CC(=O)O)cc1Oc1ccc(NC(=O)c2ccc(Cl)cc2)cc1CSCc1ccccc1` [Compound 18, {3-[2-Benzylsulfanylmethyl-4-(4-chloro-benzoylamino)-phenoxy]-4-methoxy-phenyl}-acetic acid], for which the pIC50 on human DP2 receptor and at human DP1 receptor was over 6.52 throughout.
Turning to `COc1ccc(CC(=O)O)cc1Oc1ccc(NC(=O)c2ccc(Cl)cc2)cc1CSc1nnc(C)s1` [Compound 19, {3-[4-(4-Chloro-benzoylamino)-2-(5-methyl-[1,3,4]thiadiazol-2-ylsulfanylmethyl)-phenoxy]-4-methoxy-phenyl}-acetic acid], the pIC50 on human DP2 receptor was over 6.52; on human DP1 receptor, under 6.00.
The corresponding values for `CC(C)SCc1cc(NC(=O)C(C)(C)C)ccc1Oc1cc(Cl)cc(CC(=O)O)c1` [Compound 30, {3-Chloro-5-[4-(2,2-dimethyl-propionylamino)-2-isopropylsulfanylmethyl-phenoxy]-phenyl}-acetic acid] are over 6.52 and under 6.00.
As to `CC(C)(C)C(=O)Nc1ccc(Oc2cc(CC(=O)O)cc(C(F)(F)F)c2)c(CSCC(F)(F)F)c1` [Compound 32, {3-[4-(2,2-Dimethyl-propionylamino)-2-(2,2,2-trifluoro-ethylsulfanylmethyl)-phenoxy]-5-trifluoromethyl-phenyl}-acetic acid], the pIC50 at human DP2 receptor was over 6.52; on human DP1 receptor, under 6.00.
In the case of `COc1ccc(CC(=O)O)cc1Oc1ccc(N2CCNC2=O)cc1CSCC(F)(F)F` [Compound 57, {4-Methoxy-3-[4-(2-oxo-imidazolidin-1-yl)-2-(2,2,2-trifluoro-ethylsulfanylmethyl)-phenoxy]-phenyl}-acetic acid], the pIC50 at human DP2 receptor is 6.00 to 6.52; at human DP1 receptor, under 6.00.
The like results for `COc1ccc(CC(=O)O)cc1Oc1ccc(NC(=O)c2ccccc2)cc1CSC(C)(C)C` [Compound 58, [3-(4-benzoylamino-2-tert-butylsulfanylmethyl-phenoxy)-4-methoxy-phenyl]-acetic acid] were, in that order, over 6.52 and over 6.52.
In the case of `CC(C)(C)SCc1cc(NC(=O)C(C)(C)C)ccc1Oc1cc(CC(=O)O)ccc1Cl` [Compound 59, {3-[2-tert-Butylsulfanylmethyl-4-(2,2-dimethyl-propionylamino)-phenoxy]-4-chloro-phenyl}-acetic acid], the pIC50 on human DP2 receptor and on human DP1 receptor was over 6.52 throughout.
Consider `CC(C)(C)SCc1cc(NC(=O)c2ccc(Cl)cc2)ccc1Oc1cc(CC(=O)O)ccc1Cl` [Compound 60, {3-[2-tert-Butylsulfanylmethyl-4-(4-chloro-benzoylamino)-phenoxy]-4-chloro-phenyl}-acetic acid], for which the pIC50 on human DP2 receptor and at human DP1 receptor was over 6.52 in each case.
As for `CC(C)C(=O)Nc1ccc(Oc2cc(CC(=O)O)ccc2Cl)c(CSC(C)(C)C)c1` [Compound 61, [3-(2-tert-Butylsulfanylmethyl-4-isobutyrylamino-phenoxy)-4-chloro-phenyl]-acetic acid], the pIC50 on human DP2 receptor and at human DP1 receptor was over 6.52 throughout.
On to `COc1ccc(CC(=O)O)cc1Oc1ccc(NC(=O)c2cccc(F)c2)cc1CSC(C)(C)C` [Compound 62, {3-[2-tert-Butylsulfanylmethyl-4-(3-fluoro-benzoylamino)-phenoxy]-4-methoxy-phenyl}-acetic acid], for which the pIC50 on human DP2 receptor and at human DP1 receptor was over 6.52 each time.
Turning to `COc1ccc(CC(=O)O)cc1Oc1ccc(NC(=O)c2ccc(F)cc2)cc1CSC(C)(C)C` [Compound 63, {3-[2-tert-Butylsulfanylmethyl-4-(4-fluoro-benzoylamino)-phenoxy]-4-methoxy-phenyl}-acetic acid], the pIC50 at human DP2 receptor and on human DP1 receptor was over 6.52 in each case.
Turning to `COc1ccc(CC(=O)O)cc1Oc1ccc(NC(=O)c2ccccc2F)cc1CSC(C)(C)C` [Compound 64, {3-[2-tert-Butylsulfanylmethyl-4-(2-fluoro-benzoylamino)-phenoxy]-4-methoxy-phenyl}-acetic acid], the pIC50 on human DP2 receptor and at human DP1 receptor was over 6.52 each time.
Consider `COc1ccc(CC(=O)O)cc1Oc1ccc(NC(=O)c2ccc(Cl)cc2Cl)cc1CSC(C)(C)C` [Compound 65, {3-[2-tert-Butylsulfanylmethyl-4-(2,4-dichloro-benzoylamino)-phenoxy]-4-methoxy-phenyl}-acetic acid], for which the pIC50 on human DP2 receptor and on human DP1 receptor was over 6.52 throughout.
Turning to `COc1ccc(CC(=O)O)cc1Oc1ccc(NC(=O)c2cc(Cl)cc(Cl)c2)cc1CSC(C)(C)C` [Compound 66, {3-[2-tert-Butylsulfanylmethyl-4-(3,5-dichloro-benzoylamino)-phenoxy]-4-methoxy-phenyl}-acetic acid], the pIC50 on human DP2 receptor and at human DP1 receptor was over 6.52 each time.
Regarding `COc1ccc(CC(=O)O)cc1Oc1ccc(NC(=O)c2cc(F)cc(F)c2)cc1CSC(C)(C)C` [Compound 67, {3-[2-tert-Butylsulfanylmethyl-4-(3,5-difluoro-benzoylamino)-phenoxy]-4-methoxy-phenyl}-acetic acid], the pIC50 at human DP2 receptor and at human DP1 receptor was over 6.52 throughout.
In the case of `COc1ccc(CC(=O)O)cc1Oc1ccc(NC(=O)c2cccc(C(F)(F)F)c2)cc1CSCC(F)(F)F` [Compound 68, {4-methoxy-3-[2-(2,2,2-trifluoro-ethylsulfanylmethyl)-4-(3-trifluoromethyl-benzoylamino)-phenoxy]-phenyl}-acetic acid], the pIC50 at human DP2 receptor and at human DP1 receptor was over 6.52 each time.
On to `COc1ccc(CC(=O)O)cc1Oc1ccc(NC(=O)c2ccc(C(F)(F)F)cc2)cc1CSCC(F)(F)F` [Compound 69, {4-methoxy-3-[2-(2,2,2-trifluoro-ethylsulfanylmethyl)-4-(4-trifluoromethyl-benzoylamino)-phenoxy]-phenyl}-acetic acid], for which the pIC50 at human DP2 receptor and at human DP1 receptor was over 6.52 each time.
